Measurements from patent publication EP0139358B1, “N6-substituted diarylalkyl adenosines, processes for their production and pharmaceutical compositions comprising the same” (priority 1983, dated 1985).
Like-named read-outs stand apart in the source and are kept apart here.

Columns and labels:
[1] = tested on: Long-Evans rats or squirrel-monkeys; test: Antipsychotic lever-push shock avoidance protocol (SIDR); type: in vivo; conditions: Rattus norvegicus; shock avoidance lever pushing; read-out: SIDR ED50
Protocol: Representative compounds of the invention (identified in the Examples) were also tested for antipsychotic activity according to the following protocol (SIDR). […] Mature male Long-Evans rats or squirrel-monkeys are conditioned to push a lever in order to avoid a painful electric footshock. If the animal fails to push the lever, he receives a shock every ten seconds until the lever is pushed. Shocks can be terminated by pushing the lever. Thereafter, as long as the lever is pushed at least once every 20 seconds, there will be no shock. Each animal acts as its own control; one weekly session is used to establish baseline behavior and another session later in the week is used as a drug session. Once patterns of avoidance are established, the effects of standard and unknown compounds are studied. All events are electronically programmed and the response to these events counted or used as feedback to the program.

Swiss-Webster male mice [2] = test: Mouse Activity and Screen Test (MAST): inhibition of spontaneous locomotion (LI); type: in vivo; conditions: Mus musculus, ip; read-out: MAST LI LAD
Protocol: (§1) Treatments are administered intraperitoneally one hour prior to testing. […] Compounds are dissolved or suspended in 0.2% Methocel. Control animals are injected with Methocel.
Immediately following the screen test, the final phase of testing is initiated by placing each group of three mice in one actophotometer (Life Sciences, 22, 1067-1076, 1978). The actophotometer consists of a cylindrical chamber whose center is occupied by another cylinder which contains the illumination for six photocells located on the perimeter of the chamber. Six light-beam interruptions equal one count. Locomotor activity is recorded by computer at ten minute intervals for 60 minutes. […]

male Swiss-Webster mice = test: Analgesic evaluation: antiwrithing (AW) test, acetic acid; type: in vivo; conditions: Mus musculus, sc; subcutaneously, 20 minutes before acetic acid; dose to suppress writhing by 50%; read-out: AW ED50
Protocol: The antiwrithing (AW) test provides preliminary assessment of compounds with potential analgesic activity. The test is performed in male Swiss-Webster mice. Compounds are administered subcutaneously in aqueous 0.2% methylcellulose or other appropriate vehicles in volumes of 10 ml/kg. Dosages represent activity moiety.
Acetic acid (0.6%, 10 ml/kg) is injected intraperitroneally 20 minutes after administration of the adenosine agonist. Writhing movements are counted for five minutes starting seven minutes after the acetic acid injection. Writhing is defined as abdominal constriction and stretching of the body and hind legs with concave arching of the back. […] EDso values are calculated by nonlinear regression analysis.

rat heart = test: Coronary blood flow (PCS2A): isolated perfused heart; conditions: isolated perfused rat heart
Protocol: CORONARY BLOOD FLOW (PCS2A)
Male rats (400-600 gms) are pretreated with Na haparin 2000 units and anesthetized with Na pentobarbital (50 mg/kg) administered intraperitoneally. Once anesthetized, the rat heart is rapidly excised, the ascending aorta fitted to the aortic perfusion cannula, and […] with a ligature. The coronary arteries are perfused initially at a rate of about 15 ml/min for two to three minutes, afterwhich they are perfused at constant pressure of 70 mm Hg and temperature of 37°C. The electrocardiogram (ECG) is recorded using two platinum electrodes positioned at the base and apex of the left ventricle. A second heart is excised, cannulated, and perfused by the same method outlined above. Both hearts are tested in parallel. The standard physiological salt solution (PSS) is a modified Krebs-Hanseleit bicarbonate buffer of the following composition in mM concentration: NaCI, 127; NaHC03, 25; dextrose, 5.5; Na Pyruvate, 2.0: KCI, 4.7; MgS04, 1.1; KH 2P04, 1.2; CaCl2·2H2O, 2.5; CaNa2 EDTA, 0.05.
A 30-minute stabilization period is observed before starting the test protocol.
The microprocessor control system is a servo mechanism which permits coronary perfusion pressure (CPP) and drug concentration to be maintained constant independent of changes in coronary flow. The level at which CPP and drug concentration are maintained can be changed by commands communicated through the microprocessor keyboard. Dose-response curves are carried out by perfusing concentrated drug solution (DC) at rates proportional to total coronary flow (CFT). Drug concentrations are increased by proportionate increases in the rate of DC infusion over CFT via the microprocessor keyboard. The proportional flow rates for DC:CFT is about .0002:1 at the low end and .02: at the high end of the dose-response curve. Dose-response curves encompassing at least two log doses are carried out by preparing two DCs with a concentration difference of 1:100. Following the first dose range of two log doses, the DC are switched, proportional pumping rate adjusted, and the dose-response curve continued for another two log doses. The standard dose-response curve is carried out in one-half log dose increments starting at a subthreshold dose and ending at a dose which produces near maximal response in activity. Standard reference compounds are tested over the range of 10-^9 to 10-^6M.
Measurements are for heart rate (HR) and coronary flow (CF). Units are: HR, beats/minute (bpm) and CF, milliliters/minute (ml/min). HR is calculated from the ECG strip chart recording and CF is calculated by recording analog outputs from pumps 1 and 2. Outputs from pump #1 = CFT and the output from pump #2 = CF for heart B (CFg). CF for heart A (CFA) is calculated (CFT - CFB = CFA).
Using the above technique, the effects of the compound of Examples 1 and 2 are as follows: […]

conscious rat = test: Antihypertensive evaluation (AHP3): aortic blood pressure and heart rate; type: in vivo; conditions: lowest dose tested at which a >10% reduction in blood pressure for four consecutive hours is achieved; conscious rat; read-out: AHP3 BP LAD
Source text: […] EVALUATION (AHP3)
This test procedure is described in the following paragraphs.
A Method for the Direct Monitoring of Aortic Blood Pressure and Heart Rate from Conscious Rats
The continuous monitoring of pulsatile blood pressure (BP) from unrestrained conscious rats surgically equipped with polyethylene cannulas was accomplished by means of a computer assisted data capture scheme (CADCS). The absic elements of the methodology are the cannulation procedure and the CADCS.
Cannulation Procedure: Rats were anesthetized with Telazol (1:1 tiletamine HCI and zolazepam HCI); 20-40 mg/kg IM and the descending aorta exposed via a midline incision. Cannulas fabricated from polyethylene tubing were inserted into the aorta via an undersized puncture hole below the renal arteries. The puncture hole was made by a 23 G disposable needle with a section of the aorta clamped off above and below the puncture site. The cannulas, consisting of a PE100 (0.86 mm ID) body and a PE50 (0.58 mm ID) tip, were attached to a trocar, inserted through the psoas muscle, and passed subcutaneously along the midline of the back and externalized between the ears. The cannulas were anchored to the psoas muscle and between the scalulae (3-0 green braided suture). The midline incision was closed in two steps (muscle first, skin second) using continuous over-and over sutures (4-0 chronic). Each rat was then given penicillin 30,000 units subcutaneously (Penicillin G Procaine Sterile Suspension).
The rats were fitted with a harness-spring-swivel assembly designed to protect the cannula and to provide the rat relative freedom of movement. The harnesses were fabricated from nylon hook and loop tape cemented to a metal plate to which spring wires (18-8 stainless steel), were attached to brass swivels. Each polyethylene cannula was channeled through a spring and connected through a swivel to a pressure transducer (Model P23Gb; Statham Instruments; Hato Rey, Puerto Rico) and an infusion pump (Sage model 234-7; Orion Research, Cambridge, Ma) by means of PE100 tubing. While on test, each rat received a continuous slow infusion of heparinized saline solution (approximately 400 I or 40 units of heparin per 24 hour period) to prevent clot formation. Additional "flushes" of the cannula with heparinized saline were carried out when the aortic pulse pressure (systolic minus diastolic) was less than 25 mm Hg.
CADCS: The pulsatile blood pressure and heart rate of each of 32 rats was monitored every minute by means of two in-laboratory microcomputers communicating directly with a data concentrator computer. The data were first stored on the data concentrator disk and then transferred to a magnetic tape for analysis and report generation by the main research computer. The overall scheme involved modulating the primary signal from the pressure transducer, generating the primary data set of the one-minute values for systolic, diastolic, and mean blood pressures and heart rate by the in-lab microcomputer and the storage, analysis, and report generation by the main research computer.
The transducers were connected to analog signal conditioning modules. The modules providing a regulated excitation voltage for the transducers, amplification as required to interface the microprocessors and an active low pass filter to compensate for the pressure wave form distortion produced by the flexible, fluid filled, narrow cannula.
The microcomputers (one for each of two groups of 16 rats) were connected to the input components through the module interface units, an analog-to-digital converter for the pressure wave form signal and the digital inputs for the dose and event marker switches. The microcomputer controlled the sequential acquisition of data from the modular interface units through an internal synchronous time-of-day clock/ time base generator. […]

Swiss-Webster male mice [3] = test: Mouse Activity and Screen Test (MAST): screen test (ST); type: in vivo; conditions: lowest dose at which an A rating (60-100%) is achieved, screen test; intraperitoneally
Protocol: as §1
The compounds are identified in the Examples.

[4] = coronary flow, read-out: PCS2A CF ED50
[5] = heart rate, read-out: PCS2A HR ED50

SMILES | ED50 [1] | minimal effective dose (Swiss-Webster male mice [2]) | ED50 (male Swiss-Webster mice) | EC50 (rat heart; [4]) | EC50 (rat heart; [5]) | minimal effective dose (conscious rat) | MAST ST LAD (Swiss-Webster male mice [3])
CC(CNc1ncnc2c1ncn2[C@@H]1O[C@H](CO)[C@@H](O)[C@H]1O)(c1ccccc1)c1ccccc1 [Example 8, N^6-(2,2-Diphenylpropyl)adenosine] | 5.6 mg/kg | 10 mg/kg | 10.6 mg/kg | < 0.1 µM | 3 µM | 10 mg/kg | >100 mg/kg
OC[C@H]1O[C@@H](n2cnc3c(NCC(c4ccccc4)c4ccc(Cl)cc4)ncnc32)[C@H](O)[C@@H]1O (stereo partly shown) [Example 15, N^6-(2-(4-Chlorophenyl)-2-phenylethyl)adenosine] | 12.7 mg/kg | 10 mg/kg | – | 0.03 µM | > 3 µM | 10 mg/kg | >100 mg/kg
CC(=O)OC[C@H]1O[C@@H](n2cnc3c(NCC(c4ccccc4)c4ccccc4)ncnc32)[C@H](OC(C)=O)[C@@H]1OC(C)=O [Example 25, 2',3',5'-Tri-O-acetyl-N^6-(2,2-diphenylethyl)adenosine] | 11.3 mg/kg | 3 mg/kg | – | 1 µM | 2.2 µM | 10 mg/kg | >100 mg/kg
